This is an account of results in US20120294879A1, “CONSENSUS SEQUENCE FOR INFLUENZA A VIRUS” (priority 2009, published 2012).

Experiment [1] deals with HLA-A2, -A24, -B7, -DR2, -DR3 and -DR4 transgenic mice. Format: cell-based. The arrangement: key to HLA allele this work (HLA restriction by ELISpot): —represents no positive ELISpot response.
Experiment [2] relates to splenocytes of HLA-A24 (A*2402) transgenic mice. It is filed as cell-based. The arrangement: key to A24: average IFN-γ spots forming cells per million splenocytes: — represents no positive ELISpot response.
Experiment [3] has as its system splenocytes of HLA-B7 (B*0702) transgenic mice. Format: cell-based. Further details: key to B7: average IFN-γ spots forming cells per million splenocytes: — represents no positive ELISpot response.
Experiment [4] deals with splenocytes of HLA-DR2 (DRB1*1501) transgenic mice. It is filed as cell-based. Further details: key to DR2: average IFN-γ spots forming cells per million splenocytes: — represents no positive ELISpot response.
The test system of experiment [5] is splenocytes of HLA-DR3 (DRB1*0301) transgenic mice. It is filed as cell-based. Further details: key to DR3: average IFN-γ spots forming cells per million splenocytes: — represents no positive ELISpot response.
Experiment [6] has as its system splenocytes of HLA-DR4 (DRB1*0401) transgenic mice. Format: cell-based. Further details: key: — represents no positive ELISpot response.
The target in experiment [7] is HLA-DR3 (HLA-DRA*0101 and -DRB1*0301), as expressed in HLA-DR3 transgenic mice (human). Put plainly: cell-based or functional assay.
Experiment [8] addresses HLA-DR4 (HLA-DRA*0101 and -DRB1*0401), as expressed in HLA-DR4 transgenic mice (human). As to the kind of experiment: cell-based or functional assay.

Regarding TQIQTRRSFEIKKLWDQ, the “HLA allele this work (HLA restriction by ELISpot)” value (from here on “HLA allele this work”) in experiment [1] is reported as “—”.

Consider TQPTFSVQRNLPFDKTT, for which the “A24: average IFN-γ spots forming cells per million splenocytes” value in experiment [2] is “—”. Besides, the “B7: average IFN-γ spots forming cells per million splenocytes” value in experiment [3] is “—”. Besides, in experiment [4], the “DR2: average IFN-γ spots forming cells per million splenocytes” value (shortened to “DR2 … per million splenocytes”) was 110 ± 14(1) IFN-γ spots forming cells per million splenocytes and the “DR2: lowest concentration of peptide giving positive ELISpot response in peptide titration” value (“DR2: lowest concentration” for short) is given as 110 ± 14(1) μg/ml. Further, in experiment [5], the “DR3: average IFN-γ spots forming cells per million splenocytes” value (from here on “DR3 … per million splenocytes”) was 41 ± 2(10) IFN-γ spots forming cells per million splenocytes and the “DR3: lowest concentration of peptide giving positive ELISpot response in peptide titration” value is listed as 41 ± 2(10) μg/ml. Moreover, the “DR4: average IFN-γ spots forming cells per million splenocytes” value (“DR4 … per million splenocytes” below) in experiment [6] is “—”. In addition, in experiment [1], the “lowest peptide concentration giving positive IFN-γ ELISpot response (apparent functional avidity)” value is “solely at the highest peptide concentration”.

In the case of AGALASCMGLIYNRMGA, the “HLA allele this work” value in experiment [1] was “—”.

With KTGGPIYKRVDGKWVRE, the “HLA allele this work” value in experiment [1] is on record as “DR3”.

As to NQPEWFRNILSIAPIMF, the “A24: average IFN-γ spots forming cells per million splenocytes” value in experiment [2] is “—”. In experiment [3], the “B7: average IFN-γ spots forming cells per million splenocytes” value was 60 ± 8 IFN-γ spots forming cells per million splenocytes and the “B7: lowest concentration of peptide giving positive ELISpot response in peptide titration” value was “(10) μg/ml”. Also, the “DR2 … per million splenocytes” value in experiment [4] was “—”. Also, the “DR3 … per million splenocytes” value in experiment [5] is recorded as “—”. In experiment [6], the “DR4 … per million splenocytes” value was “—”. The “lowest peptide concentration giving positive IFN-γ ELISpot response (apparent functional avidity)” value in experiment [1] is recorded as “solely at the highest peptide concentration”.

Consider RCHRGDTQIQTRRSFEI, for which the “A24: average IFN-γ spots forming cells per million splenocytes” value in experiment [2] is recorded as “—”. In experiment [3], the “B7: average IFN-γ spots forming cells per million splenocytes” value is listed as “—”. In experiment [4], the “DR2 … per million splenocytes” value is recorded as 194 ± 47(0.1) IFN-γ spots forming cells per million splenocytes and the “DR2: lowest concentration” value is on record as 194 ± 47(0.1) μg/ml. The “DR3 … per million splenocytes” value in experiment [5] is recorded as “—”. Moreover, the “DR4 … per million splenocytes” value in experiment [6] is “—”. In addition, the “HLA allele this work” value in experiment [1] is on record as “DR2”.

In experiment [7], “PB1 650-666 peptide of influenza virus A/New York/348/2003 (H1N1)” returned an IFN-γ ELISpot at 10 µg/ml peptide, splenocytes of immunized HLA transgenic mice of 142 and a lowest concentration of peptide giving positive ELISpot response of 0.1 µg/mL. For the same substance, in experiment [8], the IFN-γ ELISpot at 10 µg/ml peptide, splenocytes of immunized HLA transgenic mice was found to be 41 and the lowest concentration of peptide giving positive ELISpot response stood at 0.1 µg/mL.

As to KWMMAMKYPITADKRIT, the “A24: average IFN-γ spots forming cells per million splenocytes” value in experiment [2] was “—”. Moreover, the “B7: average IFN-γ spots forming cells per million splenocytes” value in experiment [3] is on record as “—”. Moreover, the “DR2 … per million splenocytes” value in experiment [4] is recorded as “—”. Also, the “DR3 … per million splenocytes” value in experiment [5] was “—”. Further, the “DR4 … per million splenocytes” value in experiment [6] is 161 ± 18(0.1) IFN-γ spots forming cells per million splenocytes. Also, in experiment [1], the “HLA allele this work” value is “DR4”.

Regarding LTIERMVLSAFDERRNK, in experiment [1], the “HLA allele this work” value is recorded as “—”.

For the substance NKMARLGKGYMFESKSM, in experiment [1], the “HLA allele this work” value is reported as “—”.

Regarding GYTMDTVNRTHQYSERG, the “A24: average IFN-γ spots forming cells per million splenocytes” value in experiment [2] was “—”. For the same substance, the “B7: average IFN-γ spots forming cells per million splenocytes” value in experiment [3] was “—”. Besides, the “DR2 … per million splenocytes” value in experiment [4] is given as “—”. Besides, in experiment [5], the “DR3 … per million splenocytes” value is given as “—”. In experiment [6], the “DR4 … per million splenocytes” value is 125 ± 11(0.1) IFN-γ spots forming cells per million splenocytes. Further, the “HLA allele this work” value in experiment [1] is on record as “DR4”.

In experiment [7], “M1 169-185 peptide of influenza virus A/New York/348/2003 (H1N1)” showed an IFN-γ ELISpot at 10 µg/ml peptide, splenocytes of immunized HLA transgenic mice of 120 and a lowest concentration of peptide giving positive ELISpot response of 0.1 µg/mL.

Regarding MDVNPTLLFLKVPAQNA, the “HLA allele this work” value in experiment [1] is recorded as “—”.

In experiment [7], “PB1 471-487 peptide of influenza virus A/New York/348/2003 (H1N1)” showed an IFN-γ ELISpot at 10 µg/ml peptide, splenocytes of immunized HLA transgenic mice of 116 and a lowest concentration of peptide giving positive ELISpot response of 0.1 µg/mL.

GKGYMFESKSMKLRTQI: in experiment [2], the “A24: average IFN-γ spots forming cells per million splenocytes” value is “—”. In addition, in experiment [3], the “B7: average IFN-γ spots forming cells per million splenocytes” value is on record as “—”. In addition, in experiment [4], the “DR2 … per million splenocytes” value is 52 ± 2(1) IFN-γ spots forming cells per million splenocytes and the “DR2: lowest concentration” value is 52 ± 2(1) μg/ml. Moreover, the “DR3 … per million splenocytes” value in experiment [5] is recorded as “—”. In addition, the “DR4 … per million splenocytes” value in experiment [6] is given as “—”. In experiment [1], the “HLA allele this work” value is given as “DR2”.

Consider NTYQWIIRNWETVKIQW, for which, in experiment [2], the “A24: average IFN-γ spots forming cells per million splenocytes” value is 322 ± 44 IFN-γ spots forming cells per million splenocytes and the “A24: lowest concentration of peptide giving positive ELISpot response in peptide titration” value is given as “(0.1) μg/ml”. In experiment [3], the “B7: average IFN-γ spots forming cells per million splenocytes” value is on record as “—”. Further, in experiment [4], the “DR2 … per million splenocytes” value was 96 ± 9(0.1) IFN-γ spots forming cells per million splenocytes and the “DR2: lowest concentration” value was 96 ± 9(0.1) μg/ml. Moreover, the “DR3 … per million splenocytes” value in experiment [5] was “—”. In addition, the “DR4 … per million splenocytes” value in experiment [6] is “—”. The “HLA allele this work” value in experiment [1] was “both HLA class I and II alleles”.

In the case of FVANFSMELPSFGVSGV, the “HLA allele this work” value in experiment [1] is given as “—”.

As for “PB1 126-142 peptide of influenza virus A/New York/348/2003 (H1N1)”, in experiment [7], the IFN-γ ELISpot at 10 µg/ml peptide, splenocytes of immunized HLA transgenic mice came out at 78 and the lowest concentration of peptide giving positive ELISpot response stood at 0.1 µg/mL.

As for “NP 109-125 peptide of influenza virus A/New York/348/2003 (H1N1)”, in experiment [7], the IFN-γ ELISpot at 10 µg/ml peptide, splenocytes of immunized HLA transgenic mice turned out to be 501 and the lowest concentration of peptide giving positive ELISpot response came to 0.1 µg/mL.

In experiment [7], “PB2 256-272 peptide of influenza virus A/New York/348/2003 (H1N1)” had an IFN-γ ELISpot at 10 µg/ml peptide, splenocytes of immunized HLA transgenic mice of 169 and a lowest concentration of peptide giving positive ELISpot response of 0.1 µg/mL.

In experiment [7], “PB2 434-450 peptide of influenza virus A/New York/348/2003 (H1N1)” registered an IFN-γ ELISpot at 10 µg/ml peptide, splenocytes of immunized HLA transgenic mice of 444 and a lowest concentration of peptide giving positive ELISpot response of 0.1 µg/mL.

In the case of MSLLTEVETYVLSIVPS, the “HLA allele this work” value in experiment [1] is listed as “—”.

For the substance “PB2 464-480 peptide of influenza virus A/New York/348/2003 (H1N1)”, in experiment [7], the IFN-γ ELISpot at 10 µg/ml peptide, splenocytes of immunized HLA transgenic mice worked out at 324 and the lowest concentration of peptide giving positive ELISpot response came to 0.1 µg/mL.

“PB1 680-696 peptide of influenza virus A/New York/348/2003 (H1N1)” gave an IFN-γ ELISpot at 10 µg/ml peptide, splenocytes of immunized HLA transgenic mice in experiment [7] of 181.

For the substance “NP 37-53 peptide of influenza virus A/New York/348/2003 (H1N1)”, in experiment [7], the IFN-γ ELISpot at 10 µg/ml peptide, splenocytes of immunized HLA transgenic mice was determined as 66 and the lowest concentration of peptide giving positive ELISpot response turned out to be 1 µg/mL.

For “PB1 554-570 peptide of influenza virus A/New York/348/2003 (H1N1)”, the IFN-γ ELISpot at 10 µg/ml peptide, splenocytes of immunized HLA transgenic mice was found to be 166 in experiment [7] and 76 in experiment [8]. The lowest concentration of peptide giving positive ELISpot response in experiment [7] and in experiment [8] was 0.1 µg/mL in each case.
